Measured values taken from EP0819136B1, “MDP DERIVATIVES AND CONJUGATES HAVING HAEMATOPOIETIC FUNCTION STIMULATING ACTIVITY, AND COMPOSITIONS CONTAINING SAME” (VACSYN S.A., priority 1995, dated 1996).

Experiments:
[1] = test system: CSH; test: Circulating CSH at different stages of differentiation, colony cultures of blood mononuclear cells from treated mice (Example 7, figures 14a-d); format: in vivo, souris (10 Balb/c par groupe); details: once daily for three consecutive days, MDM 25 mg/kg with or without AZT 50 mg/kg; blood collected 24 h after the last administration
Excerpt: Ces expériences ont pour objet la mise en évidence des différentes populations de CSH présentes dans le sang circulant.
Ont été recherchés les stades suivants depuis les plus primitifs décelables en culture et qui ne présentent aucun signe de différenciation comme les CFAC (Coblestone Area Forming Cells) et LTC-IC (Long Term Culture - Initiating Cells) jusqu'au GM-CFU (Granulocyte Macrophage - Colony Forming Units) en passant par des stades intermédiaires comme les HPP et LPP-CFU (respectivement High Proliferating Potential and Low Proliferating Potential CFU). Dans tous les cas, les conditions de cultures, en particulier leur durée, ont été choisies pour permettre une détection optimale des différentes populations considérées.
Ont été comparés pour cette étude l'effet de l'injection de saline (X-), d'AZT à 50 mg/kg, du MDM à 25 mg/kg et le mélange des deux sur le nombre de CSH cirulants. Les cellules mononucléaires après purification ont été cultivées pendant 5 jours pour dénombrer les GM-UFC (pour granulocytes - macrophages unités formant colonies), pendant 28 jours pour dénombrer les unités formant colonies à bas potentiel prolifératif (LPP) et les UFC à haut potentiel prolifératif (HPP). Les CAFC ont été dénombrés après 14 jours de culture. Les LTC-IC après 28 jours. Les résultats sont présentés sur les figures 14a, 14b, 14c et 14d respectivement. […]

[2] = test system: leucocytes et de neutrophiles circulants; test: Leucocyte, neutrophil and myelocyte counts after oral Muradimétide with non-myelotoxic or myelotoxic i.v. AZT (Example 8, figures 1-3); format: in vivo, souris Swiss femelles; details: Muradimétide 25 mg/kg p.o. 4 h before AZT 5 or 40 mg/kg i.v., days 0-3; time after start of treatment
Description: La figure 1 montre l'effet d'un traitement per os des souris avec du Muradimétide en association avec des doses d'AZT non myélotoxiques (5 mg par kg) (Fig 1A) ou myélotoxiques (40mg par kg) (Fig 1B) sur le changement des leucocytes circulants.
La figure 2 représente le même type de courbe sur la numération des neutrophiles; la figure 2A représente une expérience réalisée avec une dose non myélotoxique d'AZT (5 mg par kg) et la figure 2B avec une dose myélotoxique d'AZT (40 mg par kg).
La figure 3 représente le même type de courbe sur la numération des myélocytes. La figure 3A se rapporte à une dose non myélotoxique d'AZT (5mg/kg) et la figure 3B à une dose myélotoxique (40 mg/kg).
Cet effet est indiqué sur les figures 1 et 2, les figures 1A et 2A représentant une dose non myélotoxique d'AZT et les figures 1B et 2B représentant une dose myélotoxique d'AZT.
Dans cette expérience, des souris Swiss femelles ont été injectées par voie intra-veineuse avec de l'AZT à la dose de 5 ou de 40 mg par kg aux jours 0, 1, 2 et 3. Sur chacun des 4 jours et 4 heures avant l'administration d'AZT, des groupes de souris constitués de 5 individus ont reçu per os soit du tampon soit du Muradimétide à la dose de 25 mg par kg.
Les comptages cellulaires sont effectués aux jours 0, 1, 2, 3, 4 et 7. […]

[3] = test system: globules rouges et les plaquettes; test: Red blood cell and platelet counts after 7 days of oral AZT, Muradimétide or both (Example 3, figures 9 and 10); format: in vivo, souris femelles BALB/c; details: p.o. once daily for 7 days: 100 mg/kg AZT, 50 mg/kg muradimétide, or both simultaneously; counts up to day 10
Excerpt: La figure 9 représente l'effet du traitement per os de souris BALB/c pendant 7 jours consécutifs avec de l'AZT, du Muradimétide (MDM) ou un mélange de ceux-ci sur la numération plaquettaire.
La figure 10 représente l'effet du traitement per os de souris BALB/c pendant 7 jours consécutifs avec de l'AZT, du Muradimétide (MDM) ou un mélange de ceux-ci sur le nombre des globules rouges.
L'effet d'un traitement de 7 jours sur le nombre de globules rouges et de plaquettes est indiqué dans les figures 9 et 10 respectivement. Les numérations sont représentées en pourcentage de celles obtenues au jour 0. Des souris femelles BALB/c (5 par groupe) sont traitées une fois par jour pendant 7 jours consécutifs par 100 mg/kg d'AZT (Δ), 50 mg/kg de muradimétide (D) ou simultanément par 100 mg/kg d'AZT et 50 mg/kg de muradimétide (O). Les comptages de plaquettes ou de globules rouges ont été réalisés au jour 0 et jusqu'à 10 jours suivant le début du traitement. […] La tendance à l'augmentation de leur nombre apparaît entre les jours 4 et 5. En revanche, l'anémie qui pourrait être observée dans les groupes traités pourrait être due aux saignements répétés; néanmoins la vitesse et l'importance de l'anémie est grandement réduite chez les animaux traités avec le mélange des deux produits en comparaison avec celui observé dans le groupe traité par l'AZT seul. […]

`COC(=O)CC[C@@H](NC(=O)[C@H](C)NC(=O)[C@@H](C)O[C@H]1[C@H](O)[C@@H](CO)OC(O)[C@@H]1NC(C)=O)C(=O)OC` (stereo partly drawn) [Muradimétide, Nac-Mur-L-Ala-D-Glu-[OCH3]-OCH3] was tested, and the “nombre de CSH circulants (GM-CFU, LPP-CFU, HPP-CFU)” value [1] was “apparaît clairement”, the “temps de l'effet maximum (leucocytes, neutrophiles, myélocytes)” value [2] was 4 jours and the “toxicité sur les plaquettes” value [3] was “Aucune toxicité”.
